Assay results reported in patent US20140128472A1, “TREATMENT AND PREVENTION OF DISEASES RELATED TO OXIDATIVE STRESS” (UNIVERSITY OF PÉCS, priority 2011, published 2014).
Entries after “also recorded” stand apart in the source; their conditions may differ.

How the values were obtained:
3T3-L1 adipocytes = experiment: Insulin-dependent uptake of deoxy-D-glucose 2-[1 2-3H(N)] into 3T3-L1 adipocytes; format: cell-based, mouse
Method: (§1) Primary cultures of mouse embryo fibroblasts (3T3-L1) were purchased from ATCC (Manassas, US). Early passages of 3T3-L1 fibroblasts were cultured in Dulbecco's modified Eagle medium ((DMEM, Invitrogen, CAT number: 41966-029; Sigma Aldrich CAT number: D6046) supplemented with 10% Fetal Bovine Serum (Gibco, CAT number: 16170-078), 100 U/ml penicillin and 0.1 mg/ml streptomycin (Gibco, CAT number: 15070-063) and 398 nM p-, m-, or o-Tyr. DMEM contained 25 or 5 mM glucose (depending on the experiment), L-glutamine, and pyruvate. Cells were grown in a humidified incubator at 37° C. and 5% CO2. Differentiation medium consisted of DMEM supplemented with 10% Fetal Bovine Serum (FBS, Gibco, Csertex, Budapest, Hungary, CAT number: 10106-169) (FBS), to which a cocktail was added containing […] isobuthylmethylxanthine (Sigma Aldrich, CAT number: I 5879), 0.17 nM insulin (Sigma Aldrich, CAT number: I 9278) and 250 nM dexamethasone (Sigma Aldrich, CAT number: 861871). From Day 4 onward, cells were maintained in DMEM/10% FBS containing […] insulin with a media change every other day until experimental treatments were initiated. For all treatments, cells were incubated overnight in serum-deprived medium after 90% of the cell population reached the adipocyte phenotype.
Cells were incubated in glucose free DMEM (Gibco, Csertex, Hungary) for 30 minutes, then treated with 2, 20, 200 or 400 nmol/l insulin for 100 minutes. Simultaneously 1 μCi/ml deoxy-D-glucose 2-[1 2-3H(N)] (3.7×104 Bq/ml) (Izotóp Intézet, Hungary) was added to the plates for 100 minutes Cells were scraped into the medium and centrifuged for 5 minutes at 1000 rpm. The sediment was dissolved in 70 μl of lysis-buffer and glucose uptake was assessed by scintillation counting measuring 30 μl of the sample with a Beckman LS 5000 TD counter in counts per minute (CPM) for five minutes each, using an average activity as the outcome. Samples were frozen overnight at −70° C. and protein concentration was measured using a Hitachi spectrophotometer. Results were normalized for protein content (Kaddai2009).

Akt (PKB) = experiment: Erythropoietin-dependent phosphorylation of Akt (PKB) in 3T3-L1 adipocytes (Western blot); format: cell-based, mouse; conditions: 25 mM glucose; various concentrations of erythropoietin
[1] = tested on: thoracic and abdominal aorta, renal and femoral arteries; experiment: Insulin-induced relaxation of isolated arterial segments after oral tyrosine isomer supplementation of rats; format: in vivo, Sprague-Dawley rats
Method: The experiments were carried out with the permission of the Hungarian Local Animal Experiment Committee. Shortly after weaning male CFY rats (a strain of the Sprague-Dawley rat) were placed in individual cages and held on regular diet. After two hours of fasting animals (4-5 week-old, 80-140 g) were loaded with 1.76 mg/die para-, meta- or ortho-tyrosine (p-, m-, o-tyr; Sigma-Aldrich, Inc., St. Louis, Mo. 63178, USA) dissolved in saline or vehicle (saline only) by gavage (per os) six days of the week. After one month treatment, animals were either anaesthetized with ether and were decapitated with a guillotine or p-, m-, o-tyr and vehicle supplementation was discontinued (“washout” period) and they were sacrificed […] (FIG. 8.A). The descending thoracic and abdominal aorta, renal and femoral arteries were removed and cleaned from connective tissue (FIG. 19). Sections were immediately hydrolyzed for HPLC analysis or were used for vascular reactivity studies.
In further tyrosine isomer incorporation studies when effects of chronic oral p-Tyr and o-Tyr supplementation of rats on the o-Tyr level and insulin-induced relaxation of isolated arterial segments were studied, 18 Male Sprague-Dawley rats (5-6 week-old) were used. Rats were orally supplied with either 1.76 mg/die of p-Tyr or o-Tyr or vehicle during six days per week for four weeks. […] At the end of four-week treatment, HPLC and vasomotor studies were performed. In another group of rats, p-Tyr/o-Tyr supplementation was discontinued for four weeks (“washout” period), after which they were sacrificed for HPLC and vasomotor studies.
The modified method of Fésüs et al. (Fésüs2007) was used. The distal parts of the vessels were dissected into 2 mm long segments in ice-cold Krebs buffer and rings were mounted on two stainless steel wires (40 μm in diameter) in a Danish Multimyograph Model 610M (DMT-USA Inc., Atlanta, Ga., USA). Vessels were bathed in Krebs buffer (containing 119 mM NaCl, 4.7 mM KCl, 1.2 mM KH2PO4, 25 mM NaHCO3, 1.2 mM Mg2SO4, 11.1 mM glucose, 1.6 mM CaCl2*2H2O, pH 7.4) and gassed with 5% CO2 and 95% O2 at 37° C. The resting tension/internal circumference relationship for each vessel was determined and then the internal circumference was set to 0.9×L100, where L100 is the internal circumference the vessel would have had in vivo when relaxed under a transmural pressure of 100 mmHg After this normalization procedure vessels were allowed to stabilize for 30 min, and then isometric tension was continuously recorded. Rings were preconstricted with 100 nM epinephrine. After reaching a stabile contraction plateau, relaxant responses to increasing doses of insulin were assessed. The rate of relaxation was expressed as percentage of the contraction evoked by epinephrine (100%). Para-, meta-, ortho-tyrosine or vehicle were added to the vessel chamber 10 minutes before the addition of epinephrine and 30 minutes before the addition of insulin.

Akt (protein kinase B) = experiment: Insulin-induced phosphorylation of Akt in 3T3-L1 adipocytes (Western blot); format: cell-based, mouse; conditions: cells grown on m-Tyr or o-Tyr; insulin 200 and 400 nmol/l
Method: as §1
Following the treatment cells were washed twice with Saline (4° C.) to remove any trace of the medium, then exposed to 80 μL lysis buffer/plate, containing 1.15% Triton X, 1M Trisbase, pH 7.4, 0.5 M EDTA, pH 8, 0.2 M EGTA, pH 7, 0.1 M dithiothreitol (DTT), 5 mg/ml phenylmethylsulfonyl fluoride (PMSF), 0.1 M Na3VO4, 5 mg/ml leupeptin, 5 mg/ml aprotinin, Phoshatase Inhibitor Coctail 1 and 2 (Sigma Aldrich, CAT number: P2850 and P5726). Adypocytes were scraped off mechanically and then frozen at −70° C.
The samples of EC lysates were sonicated (2 min) and centrifuged (10 min, 13,000 rpm, at 4° C.). Protein content of samples was determined by the Bradford method using bovine serum albumin as a standard Bio-Rad Benchmark Plus. Samples were solubilized in a buffer of 100 mM Tris-HCl (pH 6.8), 4.0% sodium dodecyl sulphate (SDS), 20% glycerol, 200 mM DTT, and 0.2% bromophenol blue. […]
Membranes were incubated overnight with the immunoglobulin G (IgG) monoclonal antibodies diluted to 1:1000 in TBS-T (0.1%), containing 5% bovine serum (BS). […] Blots were detected using enhanced chemiluminescence (ECL; Pierce Biotech, Bio-Rad, Budapest, Hungary). Computerized densitometry (integrated optical density) of the specific bands was analyzed with Scion Image for Windows Software. […]

`N[C@@H](Cc1cccc(O)c1)C(=O)O` [m-Tyr, Meta-L-tyrosine] was tested, and the “Insulin-induced glucose uptake at equimolar concentrations with p-Tyr” value (3T3-L1 adipocytes; 72-72 mg/l m-Tyr or o-Tyr and p-Tyr, insulin 400 nM) was “fully inhibit insulin-induced glucose uptake; also recorded: insulin had no effect on glucose uptake at all”, the “Insulin-dependent deoxy-D-glucose uptake” value (3T3-L1 adipocytes; cells grown 11 days on medium with the tyrosine isomer + 5 mM glucose, insulin 2, 20, 200, 400 nM) was “no insulin effect could be verified” and the Baseline glucose uptake (3T3-L1 adipocytes; cells grown on m-Tyr- or o-Tyr-containing medium (72 mg/l) for different time periods, no insulin) was “did not show a marked change”. The “Insulin-induced glucose uptake, time dependence” value (3T3-L1 adipocytes; m-Tyr or o-Tyr 72 mg/l for different time periods, insulin 400 nM, time-dependent manner) was “blocked”, the “Ability to inhibit insulin-induced glucose uptake, dependence on concentration” value (3T3-L1 adipocytes; m-Tyr or o-Tyr 2.25-72 mg/l with p-Tyr 72 mg/l, insulin 400 nM) was “concentration-dependent” and the “EPO-dependent Akt phosphorylation” value (Akt (PKB)) was “inhibited the normal increase in the Akt phosphorylation”. For the same molecule, the “Insulin-induced relaxation, abdominal aorta, femoral (and renal) arteries” value ([1]; 4th week, 1.76 mg/die per os, compared to control) was “significantly diminished response to insulin”, the “Insulin-induced relaxation, thoracic aorta” value ([1]; 4th week, 1.76 mg/die per os, compared to control/other groups) was “did not observe any significant further decline of response to insulin” and the “Chronic effects on insulin-induced vasorelaxation after washout” value ([1]; 8th week, 4 weeks washout, all segments) was “completely abolished”. The “Insulin-induced Akt phosphorylation” value (Akt (protein kinase B)) was “inhibited the insulin-induced Akt-phosphorylation; also recorded: could not be significantly enhanced by insulin”.
